The NIST ThermoML archive (doi:10.1021/acs.jced.8b00908)
± gives the expanded uncertainty stated by the source. One block for each compound: values may come before it.

Details: Liquid, Ebulliometric method (Recirculating still)

Structure (SMILES): C=CCO [2-propenol]
- vapor or sublimation pressure (369.94 K): 101.3 ± 3.5 kPa

- vapor or sublimation pressure (350.28 K): 101.3 ± 3.5 kPa
Structure (SMILES): CCOC(C)=O [ethyl acetate]

- vapor or sublimation pressure (352.47 K): 101.3 ± 3.5 kPa
Structure (SMILES): CCC(=O)OC [methyl propanoate]

- vapor or sublimation pressure (334.12 K): 101.3 ± 3.5 kPa
Structure (SMILES): ClC(Cl)Cl [trichloromethane]
